Consider two compounds from article PMC11009625, “Antibiotic class with potent in vivo activity targeting lipopolysaccharide synthesis in Gram-negative bacteria” (Proceedings of the National Academy of Sciences of the …, 2024).

SMILES strings stand for the structures. ≈ marks a conversion by molar mass, not a printed value. Read-outs that look alike come from different tables or passages of the source.

Assay [1] relates to K. pneumoniae SSI #3010 (EN124). Put plainly: Neutropenic mouse peritonitis model, K. pneumoniae. The assay is classed as in vivo, mice. Conditions: single sc dose; for ED50: Klebsiella pneumoniae; for ED50 / 1-log effective dose, blood, K. pneumoniae / 2-log effective dose, blood, K. pneumoniae / 1-log effective dose, peritoneal fluid, K. pneumoniae / 2-log effective dose, peritoneal fluid, K. pneumoniae: modeled efficacy curves; for Efficacy against K. pneumoniae compared with ciprofloxacin (13 mg/kg): doses ≥50 mg/kg, mouse peritonitis. The procedure:
PK and safety studies were done the Latvian Institute for Organic Synthesis (Riga, Latvia) and in vivo efficacy studies were done at Statens Serum Institut (Copenhagen, Denmark). Assays were done in accordance with the relevant permits at the respective sites (SI Appendix). For PK studies, plasma samples were taken from mice dosed subcutaneously and the samples were analyzed by UPLC/MS/MS. For in vivo efficacy studies, neutropenic mice were infected intraperitoneally with 10^6 bacteria and treated with subcutaneously with test compounds 1 h after infection. The mice were euthanized 4 h after treatment and serially diluted samples of blood and peritoneal fluid were plated onto blood agar plates. Complete experimental details available in SI Appendix.
Lantmännen) and water. The experimental procedures were performed in accordance with the guidelines of the European Community and local laws and policies (Directive 2010/63/EU), and all of the procedures were approved by Food and Veterinary Service, Riga, Latvia. […]
Bacterial strains and inoculum. E. coli EC 106-09 (EN122) and K. pneumoniae SSI #3010 (EN124) are clinical isolates from Denmark. Bacterial suspensions for inoculation of mice were prepared […]
at room temperature from fresh overnight cultures on 5% blood agar plates produced by SSI diagnostica (Copenhagen Denmark). The inoculum was prepared immediately before inoculation by suspending colonies in sterile 0.9% saline to an optical density of 0.13 at 540 nm, giving a density of 10^8 CFU/ml and further diluted in 0.9% saline to 2 x 10^6 CFU/ml before injecting into the mice. For each experiment, the size of the inoculum was determined by making ten-fold dilutions in 0.9% saline, of which 20 µl was plated on 5% blood agar plates with subsequent counting of colonies after incubation overnight at 35°C in ambient air.
Mice. Outbred female CD-1 mice 26-30 gram (Envigo, Netherlands) were housed at the animal facility at Statens Serum Institut. The temperature was 22 °C +/- 2 °C and the humidity was 55 +/- 10%. The mice were housed in individually ventilated type 3 macrolone cages with bedding from Tapvei. The air changes per hour were approximately 8-12 times (70-73 times per hours inside cages), and light/dark period was in 12-hours interval of 6 a.m.- 6 p.m./6 p.m – 6 a.m.
The mice had ad libitum access to domestic quality drinking water and food Teklad Global diet 2916C-Envigo) and occasionally peanuts and sunflower seeds (Køge Korn A/S). Further, the animals were offered Enviro-Dri nesting material and cardboard houses (Bio-serv).
Mouse peritonitis model. The mice were rendered neutropenic by injecting 0.5 mL cyclophosphamide solution, 200 mg/kg intraperitoneally at 4 days and 100 mg/kg at 1 day prior to inoculation. 1 h before inoculation, mice were treated orally with […] Nurofen (20 mg ibuprofen/mL corresponding to approximately 30 mg/kg) as a pain relief. Inoculation was performed by intraperitoneal injection of 0.5 ml of the bacterial suspension containing log 6
CFU. The mice were treated subcutaneously with 0.25 – 0.30 mL based on weight, in the neck region with a single dose of compound at 1 hour post inoculation. Mice were monitored for clinical signs of discomfort. 4 h after treatment the mice were anesthetized and blood was collected by heart puncture into EDTA tubes and thereafter mice were euthanized by cervical dislocation and peritoneal washes were performed by injecting 2 ml of sterile saline intraperitoneally, followed by gentle massage of the abdomen and opening the peritoneum to collect fluid. Full blood and peritoneal fluids were serially diluted (ten-fold dilutions) and 20 µl was plated on blood agar plates produced at the SSI diagniostica (Copenhagen, Denmark) with subsequent counting of colonies after incubation overnight at 35°C in ambient. All animal experiments were approved by the National Committee of Animal Ethics – Animal Experiment Inspectorate under the Danish Ministry of Justice.
Statistical analyses. […]

Assay [2] concerns P. mirabilis ATCC 7002 and tolC::Tn5-kan2 EN1490. Put plainly: MIC, P. mirabilis laboratory strains. The assay is classed as cell-based. Conditions: Proteus mirabilis. On the procedure: (§1) Minimum inhibitory concentration (MIC) values were determined according to the Clinical Laboratory Standards Institute guidelines. Frequency of resistance was determined by plating ~5 × 10^8 bacterial cells on agar-solidified media plates containing test compound at concentrations corresponding to four times the measured solid-media MIC of the strains. Colonies were counted after 24 h, restreaked onto media containing the same concentration of compound, and the MIC remeasured against the assayed compound. Genomic DNA from isolated clones was sequenced by paired-end sequencing on an Illumina MiSeq device. Complete experimental details available in SI Appendix. […]
Minimum inhibitory concentration (MIC) determination. Broth microdilution and agar dilution MIC assays were conducted according to CLSI guidelines (M07-2012). Appropriate inoculation suspension density was assessed using a Sensititre Nephelometer with a Sensititre 0.5 […]
McFarland Standard. […]
Strain construction. The efflux-defective P. mirabilis strain EN1490 was constructed using EZ-Tn5 <KAN-2> Transposome mutagenesis with TypeOne Restriction Inhibitor. Approximately 3000 independent clones were screened for increased susceptibility to chloramphenicol (8 mg/L), yielding 2 independent clones with insertions in the gene tolC. […]

Assay [3] concerns A. baumanii BM4454 and efflux-defective BM4652. Put plainly: MIC, A. baumannii laboratory strains. In kind it is cell-based. Particulars: Acinetobacter baumannii. On the procedure: as §1
Minimum inhibitory concentration (MIC) determination. Broth microdilution and agar dilution
MIC assays were conducted according to CLSI guidelines (M07-2012). Appropriate inoculation
suspension density was assessed using a Sensititre Nephelometer with a Sensititre 0.5
McFarland Standard. Serum MICs were conducted in 50% heat-inactivated pooled human

In the next assay the test system is E. coli ATCC 25922. Put plainly: Frequency of resistance and agar MIC, E. coli. The assay is classed as cell-based. Particulars: Escherichia coli, ATCC25922, read-out: Agar MIC E. coli ATCC 25922. The procedure: as §1
Minimum inhibitory concentration (MIC) determination. […] Appropriate inoculation suspension density was assessed using a Sensititre Nephelometer with a Sensititre 0.5 […]
Frequency of Resistance. Frequency of resistance was assessed by spread plating between […] cfu of a freshly-grown culture of the strain of interest on plates containing a concentration of compound corresponding to 4 times the MIC of the strain (as determined by agar-dilution MIC). […] The frequency of resistance was determined by dividing the number of colonies obtained on the selective plates after 24 hours of growth by the calculated total population plated. […]

Where [4] appears, read: blood, read-out: ED50, blood, K. pneumoniae.
[5] abbreviates: peritoneal fluid, read-out: ED50, peritoneal fluid, K. pneumoniae.
[6] abbreviates: ATCC7002, read-out: MIC P. mirabilis ATCC 7002.
Setting [7] is: ATCC7002, read-out: MIC P. mirabilis EN1490.
[8] abbreviates: read-out: MIC A. baumanii BM4454.
Setting [9] is: read-out: MIC A. baumanii BM4652.

Turning to `Cc1cc(C#N)nc(N2CCN(S(=O)(=O)c3ccc(NC(=O)c4cc(CNCCCN)ccc4N(C)S(C)(=O)=O)cc3)CC2)n1.Cl.Cl` [EBL-3599], the results for the ED50 in assay [1] (setting [4]) and in assay [1] (setting [5]) were 20.2 mg/kg and 19.8 mg/kg, respectively. Besides, the “Efficacy against K. pneumoniae compared with ciprofloxacin (13 mg/kg)” value in assay [1] is on record as “efficacy similar to ciprofloxacin”. Moreover, the “1-log effective dose, blood, K. pneumoniae” value in assay [1] (blood) was 20.2 mg/kg. The “2-log effective dose, blood, K. pneumoniae” value in assay [1] (blood) is 28 mg/kg. Moreover, in assay [1] (peritoneal fluid), the “1-log effective dose, peritoneal fluid, K. pneumoniae” value was found to be 20.4 mg/kg. Further, in assay [1] (peritoneal fluid), the “2-log effective dose, peritoneal fluid, K. pneumoniae” value is recorded as 30.7 mg/kg. The MIC (as a rule, the lowest concentration that inhibits growth of the organism) in assay [2] (setting [6]) was > 64 mg/L; in assay [2] (setting [7]) it was 4 mg/L; in assay [3] (setting [8]) it was > 64 mg/L; in assay [3] (setting [9]), 32 mg/L; in the assay on E. coli ATCC 25922, 2 mg/L.
Regarding `Cc1cc(C#N)nc(N2CCN(S(=O)(=O)c3ccc(NC(=O)c4cc(CN5CC(CN)C5)ccc4N(C)S(C)(=O)=O)cc3)CC2)n1` [EBL-3647], the ED50 in assay [1] (setting [4]) and in assay [1] (setting [5]) was 21 mg/kg in each case. Moreover, in assay [1], the “Efficacy against K. pneumoniae compared with ciprofloxacin (13 mg/kg)” value is given as “efficacy similar to ciprofloxacin”. Also, the “1-log effective dose, blood, K. pneumoniae” value in assay [1] (blood) is on record as 21 mg/kg. Further, the “2-log effective dose, blood, K. pneumoniae” value in assay [1] (blood) is 27 mg/kg. In assay [1] (peritoneal fluid), the “1-log effective dose, peritoneal fluid, K. pneumoniae” value amounted to 22.8 mg/kg. In addition, in assay [1] (peritoneal fluid), the “2-log effective dose, peritoneal fluid, K. pneumoniae” value stood at 37.3 mg/kg. In addition, the MIC in assay [2] (setting [6]) is > 64 mg/L; in assay [2] (setting [7]), 16 mg/L (≈ 24 µM); in assay [3] (setting [8]) it was > 64 mg/L; in assay [3] (setting [9]), 64 mg/L (≈ 95.8 µM); with E. coli ATCC 25922, 2 mg/L (≈ 2.99 µM).
